In the NIST ThermoML archive (doi:10.1016/j.jct.2012.06.012):

Experiment: xn = mol fraction of the nth substance listed
Settings: Liquid, Vibrating tube method

CCCCCCCCCC [decane] + CCO
Settings	mass density [kg/m3]
342.86 K, 16000 kPa, x2 = 0.7526	727.54
342.86 K, 16000 kPa, x2 = 0.9014	742.82
342.86 K, 17000 kPa, x2 = 0.7526	728.5
342.86 K, 17000 kPa, x2 = 0.9014	743.79
342.86 K, 18000 kPa, x2 = 0.7526	729.43
342.86 K, 18000 kPa, x2 = 0.9014	744.74
342.86 K, 19000 kPa, x2 = 0.7526	730.35
342.86 K, 19000 kPa, x2 = 0.9014	745.67
342.86 K, 20000 kPa, x2 = 0.7526	731.26
342.86 K, 20000 kPa, x2 = 0.9014	746.59
342.93 K, 1000 kPa, x2 = 0.2507	693.16
342.93 K, 2000 kPa, x2 = 0.2507	694.23
342.93 K, 3000 kPa, x2 = 0.2507	695.28
342.93 K, 4000 kPa, x2 = 0.2507	696.32
342.93 K, 5000 kPa, x2 = 0.2507	697.34
342.93 K, 6000 kPa, x2 = 0.2507	698.35
342.93 K, 7000 kPa, x2 = 0.2507	699.37
342.93 K, 8000 kPa, x2 = 0.2507	700.38
342.93 K, 9000 kPa, x2 = 0.2507	701.37
342.93 K, 10000 kPa, x2 = 0.2507	702.36
342.93 K, 11000 kPa, x2 = 0.2507	703.34
342.93 K, 12000 kPa, x2 = 0.2507	704.32
342.93 K, 13000 kPa, x2 = 0.2507	705.28
342.93 K, 14000 kPa, x2 = 0.2507	706.23
342.93 K, 15000 kPa, x2 = 0.2507	707.16
342.93 K, 16000 kPa, x2 = 0.2507	708.07
342.93 K, 17000 kPa, x2 = 0.2507	708.97
342.93 K, 18000 kPa, x2 = 0.2507	709.85
342.93 K, 19000 kPa, x2 = 0.2507	710.72
342.93 K, 20000 kPa, x2 = 0.2507	711.57
352.68 K, 1000 kPa, x2 = 0.9014	717.22
352.68 K, 2000 kPa, x2 = 0.9014	718.43
352.68 K, 3000 kPa, x2 = 0.9014	719.64
352.68 K, 4000 kPa, x2 = 0.9014	720.84
352.68 K, 5000 kPa, x2 = 0.9014	722.04
352.68 K, 6000 kPa, x2 = 0.9014	723.23
352.68 K, 7000 kPa, x2 = 0.9014	724.41
352.68 K, 8000 kPa, x2 = 0.9014	725.57
352.68 K, 9000 kPa, x2 = 0.9014	726.72
352.68 K, 10000 kPa, x2 = 0.9014	727.86
352.68 K, 11000 kPa, x2 = 0.9014	728.99
352.68 K, 12000 kPa, x2 = 0.9014	730.09
352.68 K, 13000 kPa, x2 = 0.9014	731.17
352.68 K, 14000 kPa, x2 = 0.9014	732.26
352.68 K, 15000 kPa, x2 = 0.9014	733.32
352.68 K, 16000 kPa, x2 = 0.9014	734.36
352.68 K, 17000 kPa, x2 = 0.9014	735.39
352.68 K, 18000 kPa, x2 = 0.9014	736.4
352.68 K, 19000 kPa, x2 = 0.9014	737.39
352.68 K, 20000 kPa, x2 = 0.9014	738.36
352.69 K, 1000 kPa, x2 = 0.0937	683.22
352.69 K, 1000 kPa, x2 = 0.4963	689.92
352.69 K, 2000 kPa, x2 = 0.0937	684.34
352.69 K, 2000 kPa, x2 = 0.4963	691.07
352.69 K, 3000 kPa, x2 = 0.0937	685.44
352.69 K, 3000 kPa, x2 = 0.4963	692.22
352.69 K, 4000 kPa, x2 = 0.0937	686.53
352.69 K, 4000 kPa, x2 = 0.4963	693.37
352.69 K, 5000 kPa, x2 = 0.0937	687.61
352.69 K, 5000 kPa, x2 = 0.4963	694.5
352.69 K, 6000 kPa, x2 = 0.0937	688.68
352.69 K, 6000 kPa, x2 = 0.4963	695.63
352.69 K, 7000 kPa, x2 = 0.0937	689.74
352.69 K, 7000 kPa, x2 = 0.4963	696.75
352.69 K, 8000 kPa, x2 = 0.0937	690.8
352.69 K, 8000 kPa, x2 = 0.4963	697.86
352.69 K, 9000 kPa, x2 = 0.0937	691.83
352.69 K, 9000 kPa, x2 = 0.4963	698.96
352.69 K, 10000 kPa, x2 = 0.0937	692.86
352.69 K, 10000 kPa, x2 = 0.4963	700.06
352.69 K, 11000 kPa, x2 = 0.0937	693.89
352.69 K, 11000 kPa, x2 = 0.4963	701.13
352.69 K, 12000 kPa, x2 = 0.0937	694.89
352.69 K, 12000 kPa, x2 = 0.4963	702.2
352.69 K, 13000 kPa, x2 = 0.0937	695.89
352.69 K, 13000 kPa, x2 = 0.4963	703.25
352.69 K, 14000 kPa, x2 = 0.0937	696.87
352.69 K, 14000 kPa, x2 = 0.4963	704.28
352.69 K, 15000 kPa, x2 = 0.0937	697.83
352.69 K, 15000 kPa, x2 = 0.4963	705.29
352.69 K, 16000 kPa, x2 = 0.0937	698.77
352.69 K, 16000 kPa, x2 = 0.4963	706.29
352.69 K, 17000 kPa, x2 = 0.0937	699.71
352.69 K, 17000 kPa, x2 = 0.4963	707.26
352.69 K, 18000 kPa, x2 = 0.0937	700.63
352.69 K, 18000 kPa, x2 = 0.4963	708.23
352.69 K, 19000 kPa, x2 = 0.0937	701.52
352.69 K, 19000 kPa, x2 = 0.4963	709.17
352.69 K, 20000 kPa, x2 = 0.0937	702.39
352.69 K, 20000 kPa, x2 = 0.4963	710.11
